Results: ChEMBL document CHEMBL4396916, “Novel potent substituted 4-amino-2-thiopyrimidines as dual VEGFR-2 and BRAF kinase inhibitors” (Eur J Med Chem, 2019)

Legend:
[1] = target: Serine/threonine-protein kinase B-raf (Homo sapiens, UniProt P15056); experiment: Inhibition of human wild type BRAF by Kinase-Glo luminescence assay
IGROV-1 = experiment: Growth inhibition of human IGROV1 cells at 10 uM incubated for 48 hrs by sulforhodamine B assay relative to control; type: functional; conditions: IGROV-1, 48 h, read-out: GI
PC-3 = experiment: Growth inhibition of human PC3 cells at 10 uM incubated for 48 hrs by sulforhodamine B assay relative to control; type: functional; conditions: PC-3, 48 h, read-out: GI
OVCAR-8 = experiment: Growth inhibition of human OVCAR8 cells at 10 uM incubated for 48 hrs by sulforhodamine B assay relative to control; type: functional; conditions: OVCAR-8, 48 h, read-out: GI
MCF7 [2] = experiment: Cytotoxicity against human MCF7 cells expressing VEGFR2 and wild type BRAF measured after 48 hrs by sulforhodamine B assay; type: functional, cell-based; conditions: MCF7, 48 h
RXF 393 = experiment: Growth inhibition of human RXF393 cells at 10 uM incubated for 48 hrs by sulforhodamine B assay relative to control; type: functional; conditions: RXF 393, 48 h, read-out: GI
HCT-116 = experiment: Growth inhibition of human HCT116 cells at 10 uM incubated for 48 hrs by sulforhodamine B assay relative to control; type: functional; conditions: HCT-116, 48 h, read-out: GI
T47D [3] = experiment: Growth inhibition of human T47D cells at 10 uM incubated for 48 hrs by sulforhodamine B assay relative to control; type: functional; conditions: read-out: GI
MDA-MB-231 = experiment: Growth inhibition of human MDA-MB-231 cells at 10 uM incubated for 48 hrs by sulforhodamine B assay relative to control; type: functional; conditions: MDA-MB-231, 48 h, read-out: GI
SK-MEL-5 = experiment: Growth inhibition of human SK-MEL-5 cells at 10 uM incubated for 48 hrs by sulforhodamine B assay relative to control; type: functional; conditions: SK-MEL-5, 48 h, read-out: GI
UACC-62 = experiment: Growth inhibition of human UACC62 cells at 10 uM incubated for 48 hrs by sulforhodamine B assay relative to control; type: functional; conditions: UACC-62, 48 h, read-out: GI
[4] = target: Vascular endothelial growth factor receptor 2 (Homo sapiens, UniProt P35968); experiment: Inhibition of human N-terminal GST tagged VEGFR-2 expressed in baculovirus infected Sf9 cells using poly (Glu,Tyr) 4:1 as substrate in presence of ATP by Kinase-Glo luminescence assay
Sequence of Vascular endothelial growth factor receptor 2 (P35968 whole entry): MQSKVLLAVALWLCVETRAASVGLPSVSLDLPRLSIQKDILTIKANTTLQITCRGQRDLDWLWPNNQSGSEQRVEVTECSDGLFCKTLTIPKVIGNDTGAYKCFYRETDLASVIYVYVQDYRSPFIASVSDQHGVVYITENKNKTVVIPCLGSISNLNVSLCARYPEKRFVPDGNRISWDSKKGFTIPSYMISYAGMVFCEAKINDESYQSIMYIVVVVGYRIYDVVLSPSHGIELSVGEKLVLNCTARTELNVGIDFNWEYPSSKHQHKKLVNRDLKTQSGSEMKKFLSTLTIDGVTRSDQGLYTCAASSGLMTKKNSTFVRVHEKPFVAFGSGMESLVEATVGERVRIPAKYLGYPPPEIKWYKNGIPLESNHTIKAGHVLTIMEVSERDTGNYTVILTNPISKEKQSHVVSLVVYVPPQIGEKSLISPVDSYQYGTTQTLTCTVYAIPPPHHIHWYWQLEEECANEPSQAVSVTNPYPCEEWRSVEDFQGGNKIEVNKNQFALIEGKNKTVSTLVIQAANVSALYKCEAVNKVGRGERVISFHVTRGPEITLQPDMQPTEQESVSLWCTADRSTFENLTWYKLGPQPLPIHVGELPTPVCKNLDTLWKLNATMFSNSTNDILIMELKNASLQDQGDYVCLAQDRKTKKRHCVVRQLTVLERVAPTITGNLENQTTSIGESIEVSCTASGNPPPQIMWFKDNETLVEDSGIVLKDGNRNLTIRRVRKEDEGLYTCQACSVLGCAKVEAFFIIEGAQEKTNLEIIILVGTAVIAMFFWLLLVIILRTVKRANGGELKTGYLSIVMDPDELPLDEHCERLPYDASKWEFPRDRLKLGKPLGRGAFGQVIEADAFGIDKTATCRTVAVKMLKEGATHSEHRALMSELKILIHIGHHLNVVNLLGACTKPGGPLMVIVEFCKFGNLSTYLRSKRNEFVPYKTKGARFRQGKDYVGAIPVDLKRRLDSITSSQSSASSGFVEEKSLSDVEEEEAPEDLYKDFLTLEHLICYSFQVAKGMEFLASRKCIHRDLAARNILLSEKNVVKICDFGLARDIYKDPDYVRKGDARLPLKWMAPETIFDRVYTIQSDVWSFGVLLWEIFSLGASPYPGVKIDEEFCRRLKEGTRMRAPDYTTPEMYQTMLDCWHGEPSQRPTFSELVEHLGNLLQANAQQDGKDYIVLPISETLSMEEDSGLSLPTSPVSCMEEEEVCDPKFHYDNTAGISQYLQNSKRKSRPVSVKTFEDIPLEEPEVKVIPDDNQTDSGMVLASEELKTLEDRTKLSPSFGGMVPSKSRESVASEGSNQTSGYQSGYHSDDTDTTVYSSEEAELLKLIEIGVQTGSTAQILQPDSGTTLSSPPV

MOLT-4 = experiment: Growth inhibition of human MOLT4 cells at 10 uM incubated for 48 hrs by sulforhodamine B assay relative to control; type: functional; conditions: MOLT-4, 48 h, read-out: GI
MCF7 [5] = experiment: Inhibition of VEGFR2 level in human MCF7 cells at 10 uM measured after 48 hrs by ELISA relative to control; type: functional; conditions: MCF7, 48 h
T47D [6] = experiment: Cytotoxicity against human T47D cells expressing wild type BRAF measured after 48 hrs by sulforhodamine B assay; type: functional, cell-based
CAKI-1 = experiment: Growth inhibition of human Caki1 cells at 10 uM incubated for 48 hrs by sulforhodamine B assay relative to control; type: functional; conditions: CAKI-1, 48 h, read-out: GI
NCI-H226 = experiment: Growth inhibition of human NCI-H226 cells at 10 uM incubated for 48 hrs by sulforhodamine B assay relative to control; type: functional; conditions: NCI-H226, 48 h, read-out: GI
ACHN = experiment: Growth inhibition of human ACHN cells at 10 uM incubated for 48 hrs by sulforhodamine B assay relative to control; type: functional; conditions: read-out: GI
OVCAR-4 = experiment: Growth inhibition of human OVCAR4 cells at 10 uM incubated for 48 hrs by sulforhodamine B assay relative to control; type: functional; conditions: OVCAR-4, 48 h, read-out: GI
NCI/ADR-RES = experiment: Growth inhibition of human NCI/ADR-RES cells at 10 uM incubated for 48 hrs by sulforhodamine B assay relative to control; type: functional; conditions: read-out: GI
MDA-MB-468 = experiment: Growth inhibition of human MDA-MB-468 cells at 10 uM incubated for 48 hrs by sulforhodamine B assay relative to control; type: functional; conditions: MDA-MB-468, 48 h, read-out: GI
K562 = experiment: Growth inhibition of human K562 cells at 10 uM incubated for 48 hrs by sulforhodamine B assay relative to control; type: functional; conditions: K562, 48 h, read-out: GI
CCRF-CEM = experiment: Growth inhibition of human CCRF-CEM cells at 10 uM incubated for 48 hrs by sulforhodamine B assay relative to control; type: functional; conditions: read-out: GI
NCI-H23 = experiment: Growth inhibition of human NCI-H23 cells at 10 uM incubated for 48 hrs by sulforhodamine B assay relative to control; type: functional; conditions: NCI-H23, 48 h, read-out: GI
RPMI-8226 = experiment: Growth inhibition of human RPMI8226 cells at 10 uM incubated for 48 hrs by sulforhodamine B assay relative to control; type: functional; conditions: RPMI-8226, 48 h, read-out: GI
UO-31 = experiment: Growth inhibition of human UO31 cells at 10 uM incubated for 48 hrs by sulforhodamine B assay relative to control; type: functional; conditions: UO-31, 48 h, read-out: GI
LOX IMVI = experiment: Growth inhibition of human LOXIMVI cells at 10 uM incubated for 48 hrs by sulforhodamine B assay relative to control; type: functional; conditions: read-out: GI
MCF7 [7] = experiment: Growth inhibition of human MCF7 cells at 10 uM incubated for 48 hrs by sulforhodamine B assay relative to control; type: functional; conditions: MCF7, 48 h, read-out: GI
NCI-H522 = experiment: Growth inhibition of human NCI-H522 cells at 10 uM incubated for 48 hrs by sulforhodamine B assay relative to control; type: functional; conditions: NCI-H522, 48 h, read-out: GI
Hs-578T = experiment: Growth inhibition of human Hs578T cells at 10 uM incubated for 48 hrs by sulforhodamine B assay relative to control; type: functional; conditions: read-out: GI
SNB-75 = experiment: Growth inhibition of human SNB75 cells at 10 uM incubated for 48 hrs by sulforhodamine B assay relative to control; type: functional; conditions: SNB-75, 48 h, read-out: GI
EKVX = experiment: Growth inhibition of human EKVX cells at 10 uM incubated for 48 hrs by sulforhodamine B assay relative to control; type: functional; conditions: read-out: GI
A549 = experiment: Growth inhibition of human A549/ATCC cells at 10 uM incubated for 48 hrs by sulforhodamine B assay relative to control; type: functional; conditions: A549, 48 h, read-out: GI
U-251 = experiment: Growth inhibition of human U251 cells at 10 uM incubated for 48 hrs by sulforhodamine B assay relative to control; type: functional; conditions: U-251, 48 h, read-out: GI
SN12C = experiment: Growth inhibition of human SN12C cells at 10 uM incubated for 48 hrs by sulforhodamine B assay relative to control; type: functional; conditions: read-out: GI
HOP-62 = experiment: Growth inhibition of human HOP62 cells at 10 uM incubated for 48 hrs by sulforhodamine B assay relative to control; type: functional; conditions: HOP-62, 48 h, read-out: GI
HL-60(TB) = experiment: Growth inhibition of human HL-60(TB) cells at 10 uM incubated for 48 hrs by sulforhodamine B assay relative to control; type: functional; conditions: HL-60, 48 h, read-out: GI
SNB-19 = experiment: Growth inhibition of human SNB19 cells at 10 uM incubated for 48 hrs by sulforhodamine B assay relative to control; type: functional; conditions: SNB-19, 48 h, read-out: GI
SF-295 = experiment: Growth inhibition of human SF295 cells at 10 uM incubated for 48 hrs by sulforhodamine B assay relative to control; type: functional; conditions: SF-295, 48 h, read-out: GI
SK-OV-3 = experiment: Growth inhibition of human SKOV3 cells at 10 uM incubated for 48 hrs by sulforhodamine B assay relative to control; type: functional; conditions: SK-OV-3, 48 h, read-out: GI
A498 = experiment: Growth inhibition of human A498 cells at 10 uM incubated for 48 hrs by sulforhodamine B assay relative to control; type: functional; conditions: A498, 48 h, read-out: GI
SF-268 = experiment: Growth inhibition of human SF268 cells at 10 uM incubated for 48 hrs by sulforhodamine B assay relative to control; type: functional; conditions: SF-268, 48 h, read-out: GI
SF-539 = experiment: Growth inhibition of human SF539 cells at 10 uM incubated for 48 hrs by sulforhodamine B assay relative to control; type: functional; conditions: SF-539, 48 h, read-out: GI

Sequence of Serine/threonine-protein kinase B-raf (P15056 whole entry): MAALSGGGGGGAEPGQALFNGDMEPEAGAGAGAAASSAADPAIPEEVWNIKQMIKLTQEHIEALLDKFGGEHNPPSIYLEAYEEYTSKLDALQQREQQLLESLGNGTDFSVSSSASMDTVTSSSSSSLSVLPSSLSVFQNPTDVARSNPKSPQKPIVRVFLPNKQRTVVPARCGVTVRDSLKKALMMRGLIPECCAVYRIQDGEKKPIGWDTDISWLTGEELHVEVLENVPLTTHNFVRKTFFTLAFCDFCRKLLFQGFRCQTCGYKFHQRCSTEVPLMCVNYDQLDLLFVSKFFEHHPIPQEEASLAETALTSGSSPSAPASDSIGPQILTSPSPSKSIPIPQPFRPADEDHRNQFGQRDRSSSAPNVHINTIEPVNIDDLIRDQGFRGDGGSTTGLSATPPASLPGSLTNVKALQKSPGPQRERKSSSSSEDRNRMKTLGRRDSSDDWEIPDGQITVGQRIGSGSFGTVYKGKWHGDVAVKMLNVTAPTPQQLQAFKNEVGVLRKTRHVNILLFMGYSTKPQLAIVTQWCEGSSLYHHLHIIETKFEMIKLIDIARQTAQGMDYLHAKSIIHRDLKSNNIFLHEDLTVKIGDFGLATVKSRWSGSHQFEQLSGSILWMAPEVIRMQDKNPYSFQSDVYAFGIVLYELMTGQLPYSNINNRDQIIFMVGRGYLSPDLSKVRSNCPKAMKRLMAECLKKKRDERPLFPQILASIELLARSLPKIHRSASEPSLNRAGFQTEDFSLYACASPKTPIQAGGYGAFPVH

Row | SMILES | inhibition of growth at 10 µM (IGROV-1) | inhibition of growth at 10 µM (PC-3) | inhibition of growth at 10 µM (OVCAR-8) | IC50 (MCF7 [2]) | inhibition of growth at 10 µM (RXF 393) | inhibition of growth at 10 µM (HCT-116) | inhibition of growth at 10 µM (T47D [3]) | inhibition of growth at 10 µM (MDA-MB-231) | inhibition of growth at 10 µM (UACC-62) | IC50 [4] | inhibition of growth at 10 µM (CAKI-1) | inhibition of growth at 10 µM (NCI-H226) | inhibition of growth at 10 µM (ACHN) | inhibition of growth at 10 µM (MDA-MB-468) | inhibition of growth at 10 µM (K562) | inhibition of growth at 10 µM (CCRF-CEM) | inhibition of growth at 10 µM (NCI-H23) | inhibition of growth at 10 µM (RPMI-8226) | inhibition of growth at 10 µM (UO-31) | inhibition of growth at 10 µM (NCI-H522) | also measured
1 | COc1ccc(C(=O)CSc2nccc(Nc3ccc(N4CCOCC4)cc3)n2)cc1 | 12% | 16% | 24% | 23 µM | 10% | 18% | 67% | 11% | 30% | 0.29 µM | 16% | 13% | 11% | 13% | 21% | 21% | 15% | 45% | 35% | 34% | IC50 [1]: 0.44 µM; inhibition of growth at 10 µM (SK-MEL-5): 53%; inhibition of growth at 10 µM (MOLT-4): 34%; inhibition at 10 µM (MCF7 [5]): 52%; IC50 (T47D [6]): 4.36 µM; inhibition of growth at 10 µM (OVCAR-4): 15%; inhibition of growth at 10 µM (NCI/ADR-RES): 24%; inhibition of growth at 10 µM (LOX IMVI): 11%; inhibition of growth at 10 µM (MCF7 [7]): 17%
2 | CC(=O)c1cccc(Nc2ccnc(SCC(=O)c3ccc(C(F)(F)F)cc3)n2)c1 | 44% | 30% | – | 28.2 µM | 11% | 28% | 37% | 22% | 29% | > 10 µM | 42% | 24% | 19% | 16% | 29% | 10% | 21% | 31% | 57% | 27% | inhibition of growth at 10 µM (Hs-578T): 11%; inhibition of growth at 10 µM (SNB-75): 32%; inhibition of growth at 10 µM (EKVX): 28%; inhibition of growth at 10 µM (SK-MEL-5): 14%; inhibition of growth at 10 µM (A549): 12%; inhibition of growth at 10 µM (U-251): 12%; inhibition of growth at 10 µM (SN12C): 17%; inhibition of growth at 10 µM (HOP-62): 17%; inhibition of growth at 10 µM (MOLT-4): 24%; IC50 (T47D [6]): 17.1 µM; inhibition of growth at 10 µM (HL-60(TB)): < 10%; inhibition of growth at 10 µM (SNB-19): 10%; inhibition of growth at 10 µM (NCI/ADR-RES): 11%; inhibition of growth at 10 µM (SF-295): 15%; inhibition of growth at 10 µM (LOX IMVI): 13%; inhibition of growth at 10 µM (MCF7 [7]): 26%; inhibition of growth at 10 µM (SK-OV-3): 21%
3 | O=C(CSc1nccc(Nc2ccc(N3CCOCC3)cc2)n1)c1ccc(Cl)cc1 | 17% | 12% | 17% | 73.3 µM | – | – | – | 10% | 10% | 1.9 µM | 23% | 13% | 10% | 19% | 10% | 13% | 19% | 10% | 26% | 22% | inhibition of growth at 10 µM (SNB-75): 36%; inhibition of growth at 10 µM (A498): 13%; inhibition of growth at 10 µM (EKVX): 10%; inhibition of growth at 10 µM (HOP-62): 37%; inhibition of growth at 10 µM (SNB-19): 19%; inhibition of growth at 10 µM (SF-268): 15%; inhibition of growth at 10 µM (SF-539): 15%
